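GI50 = concentration required for 50% inhibition of growth. TGI: total growth inhibition.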
Assays:
Test in all cases: DTP human tumour cell line panel, 384-well format
[1] = tested on: UO-31 renal
[2] = tested on: LOX IMVI melanoma
[3] = tested on: RPMI-8226 leukemia
[4] = tested on: MOLT-4 leukemia
[5] = tested on: NCI-H226 lung
[6] = tested on: NCI-H322M lung
[7] = tested on: M14 melanoma
[8] = tested on: BT-549 breast
[9] = tested on: NCI/ADR-RES ovarian
[10] = tested on: IGROV1 ovarian
[11] = tested on: HL-60(TB) leukemia
[12] = tested on: NCI-H522 lung
[13] = tested on: TK-10 renal
[14] = tested on: 786-0 renal
[15] = tested on: OVCAR-4 ovarian
[16] = tested on: ACHN renal
[17] = tested on: HOP-62 NSCLC
[18] = tested on: A498 renal
[19] = tested on: SK-MEL-5 melanoma
[20] = tested on: MDA-MB-435 melanoma
[21] = tested on: MDA-MB-231 breast
[22] = tested on: OVCAR-8 ovarian
[23] = tested on: OVCAR-3 ovarian
[24] = tested on: NCI-H460 NSCLC
[25] = tested on: NCI-H23 lung
[26] = tested on: CAKI-1 renal
[27] = tested on: HT29 colon
[28] = tested on: SF-295 CNS
[29] = tested on: UACC-62 melanoma
[30] = tested on: SK-OV-3 ovarian
[31] = tested on: A549 NSCLC
[32] = tested on: OVCAR-5 ovarian
[33] = tested on: SF-268 CNS
[34] = tested on: HCC-2998 colon
[35] = tested on: SR leukemia
[36] = tested on: COLO 205 colon
[37] = tested on: MALME-3M melanoma
[38] = tested on: SW-620 colon
[39] = tested on: HCT-15 colon
[40] = tested on: UACC-257 melanoma
[41] = tested on: MDA-MB-468 breast
[42] = tested on: PC-3 prostate
[43] = tested on: KM12 colon
[44] = tested on: SN12C renal
[45] = tested on: RXF 393 renal
[46] = tested on: SF-539 CNS
[47] = tested on: K-562 leukemia
[48] = tested on: T-47D breast
[49] = tested on: HOP-92 NSCLC
[50] = tested on: SNB-19 CNS
[51] = tested on: HS 578T breast
[52] = tested on: EKVX NSCLC
[53] = tested on: SK-MEL-28 melanoma
[54] = tested on: MCF7 breast
[55] = tested on: SNB-75 CNS
[56] = tested on: DU-145 prostate
[57] = tested on: HCT-116 colon
[58] = tested on: U251 glioblastoma

C=CC(=O)N1CC[C@H](n2nc(C#Cc3cc(OC)cc(OC)c3)c3c(N)ncnc32)C1
GI50 [1]: 17600 nM | TGI [1]: > 100000 nM | GI50 [2]: 6090 nM | TGI [2]: 22100 nM | GI50 [3]: 1530 nM | TGI [3]: 4410 nM | GI50 [4]: 2470 nM | TGI [4]: 5060 nM | GI50 [5]: 12700 nM | TGI [5]: > 100000 nM | GI50 [6]: 11500 nM | TGI [6]: > 100000 nM | GI50 [7]: 16900 nM | TGI [7]: 69800 nM | GI50 [8]: 1510 nM | TGI [8]: 12200 nM | GI50 [9]: 11100 nM | TGI [9]: 44300 nM | GI50 [10]: 4930 nM | TGI [10]: 20700 nM | GI50 [11]: 4600 nM | TGI [11]: 16000 nM | GI50 [12]: 4390 nM | TGI [12]: 14200 nM | GI50 [13]: 5660 nM | TGI [13]: 71700 nM | GI50 [14]: 2960 nM | TGI [14]: 19100 nM | GI50 [15]: 2020 nM | TGI [15]: 25600 nM | GI50 [16]: 6800 nM | TGI [16]: 72900 nM | GI50 [17]: 6440 nM | TGI [17]: > 100000 nM | GI50 [18]: 2730 nM | TGI [18]: 18200 nM | GI50 [19]: 5050 nM | TGI [19]: 18900 nM | GI50 [20]: 31100 nM | TGI [20]: > 100000 nM | GI50 [21]: 4030 nM | TGI [21]: 68200 nM | GI50 [22]: 15900 nM | TGI [22]: 72300 nM | GI50 [23]: 3450 nM | TGI [23]: 17600 nM | GI50 [24]: 12000 nM | TGI [24]: > 100000 nM | GI50 [25]: 10500 nM | TGI [25]: 28600 nM | GI50 [26]: 4440 nM | TGI [26]: > 100000 nM | GI50 [27]: 17500 nM | TGI [27]: > 100000 nM | GI50 [28]: 25500 nM | TGI [28]: > 100000 nM | GI50 [29]: 5780 nM | TGI [29]: 30500 nM | GI50 [30]: 5240 nM | TGI [30]: 41500 nM | GI50 [31]: 12700 nM | TGI [31]: > 100000 nM | GI50 [32]: 49400 nM | TGI [32]: > 100000 nM | GI50 [33]: 9330 nM | TGI [33]: 75000 nM | GI50 [34]: 2980 nM | TGI [34]: 11000 nM | GI50 [35]: 3110 nM | TGI [35]: 13000 nM | GI50 [36]: 30000 nM | TGI [36]: > 100000 nM | GI50 [37]: 7390 nM | TGI [37]: 31400 nM | GI50 [38]: 13200 nM | TGI [38]: 32600 nM | GI50 [39]: 4460 nM | TGI [39]: 25600 nM | GI50 [40]: 2860 nM | TGI [40]: 8350 nM | GI50 [41]: 2090 nM | TGI [41]: 4530 nM | GI50 [42]: 20100 nM | TGI [42]: > 100000 nM | GI50 [43]: 10200 nM | TGI [43]: 42100 nM | GI50 [44]: 3640 nM | TGI [44]: 33900 nM | GI50 [45]: 6720 nM | TGI [45]: 66400 nM | GI50 [46]: 4520 nM | TGI [46]: 20600 nM | GI50 [47]: 12000 nM | TGI [47]: > 100000 nM | GI50 [48]: 3290 nM | TGI [48]: 52600 nM | GI50 [49]: 2520 nM | TGI [49]: 14200 nM | GI50 [50]: 12600 nM | TGI [50]: > 100000 nM | GI50 [51]: 2740 nM | TGI [51]: 11500 nM | GI50 [52]: 13400 nM | TGI [52]: 98900 nM | GI50 [53]: 17700 nM | TGI [53]: 91200 nM | GI50 [54]: 4340 nM | TGI [54]: > 100000 nM | GI50 [55]: 1440 nM | TGI [55]: 10700 nM | GI50 [56]: 9040 nM | TGI [56]: > 100000 nM

CN(C)Cc1c(C(=O)NCCOc2ccc(C(=O)NO)cc2)oc2ccccc12
GI50 [2]: 170 nM | TGI [2]: 320 nM | GI50 [3]: 11.9 nM | TGI [3]: 26.2 nM | GI50 [4]: 42.2 nM | TGI [4]: 143 nM | GI50 [5]: 376 nM | TGI [5]: 1600 nM | GI50 [6]: 180 nM | TGI [6]: 713 nM | GI50 [7]: 250 nM | TGI [7]: 1080 nM | GI50 [8]: 264 nM | TGI [8]: 1350 nM | GI50 [9]: 387 nM | TGI [9]: 1840 nM | GI50 [10]: 111 nM | TGI [10]: 324 nM | GI50 [11]: 56.9 nM | TGI [11]: 148 nM | GI50 [12]: 71.3 nM | TGI [12]: 571 nM | GI50 [13]: 184 nM | TGI [13]: 475 nM | GI50 [15]: 213 nM | TGI [15]: 495 nM | GI50 [16]: 221 nM | TGI [16]: 578 nM | GI50 [17]: 170 nM | TGI [17]: 690 nM | GI50 [18]: 187 nM | TGI [18]: 658 nM | GI50 [19]: 132 nM | TGI [19]: 278 nM | GI50 [20]: 201 nM | TGI [20]: 401 nM | GI50 [21]: 248 nM | TGI [21]: 811 nM | GI50 [22]: 46.9 nM | TGI [22]: 1130 nM | GI50 [23]: 176 nM | TGI [23]: 626 nM | GI50 [24]: 135 nM | TGI [24]: 1040 nM | GI50 [25]: 267 nM | TGI [25]: 1370 nM | GI50 [26]: 316 nM | TGI [26]: 1100 nM | GI50 [27]: 219 nM | TGI [27]: 943 nM | GI50 [28]: 161 nM | TGI [28]: 335 nM | GI50 [29]: 112 nM | TGI [29]: 256 nM | GI50 [30]: 175 nM | TGI [30]: 745 nM | GI50 [31]: 313 nM | TGI [31]: 1240 nM | GI50 [32]: 57.7 nM | TGI [32]: 212 nM | GI50 [57]: 92.3 nM | TGI [57]: 479 nM | GI50 [33]: 197 nM | TGI [33]: 604 nM | GI50 [34]: 109 nM | TGI [34]: 362 nM | GI50 [35]: 31.7 nM | TGI [35]: 136 nM | GI50 [36]: 158 nM | TGI [36]: 319 nM | GI50 [37]: 87.6 nM | TGI [37]: 330 nM | GI50 [39]: 480 nM | TGI [39]: 2010 nM | GI50 [58]: 155 nM | TGI [58]: 332 nM | GI50 [40]: 43.2 nM | TGI [40]: 194 nM | GI50 [41]: 130 nM | TGI [41]: 457 nM | GI50 [42]: 165 nM | TGI [42]: 439 nM | GI50 [43]: 311 nM | TGI [43]: 1700 nM | GI50 [44]: 130 nM | TGI [44]: 392 nM | GI50 [45]: 291 nM | TGI [45]: 1130 nM | GI50 [46]: 285 nM | TGI [46]: 2100 nM | GI50 [48]: 136 nM | TGI [48]: 300 nM | GI50 [49]: 310 nM | TGI [49]: 1330 nM | GI50 [50]: 322 nM | TGI [50]: 1120 nM | GI50 [51]: 145 nM | TGI [51]: 385 nM | GI50 [52]: 403 nM | TGI [52]: 3110 nM | GI50 [53]: 171 nM | TGI [53]: 561 nM | GI50 [54]: 133 nM | TGI [54]: 510 nM | GI50 [55]: 310 nM | TGI [55]: 2820 nM | GI50 [56]: 118 nM | TGI [56]: 320 nM
